Reference: patent publication US7960406B2, “Diketo substituted pyrrolo[2,3-c] pyridines” (priority 2008, dated 2011)
Read-outs that look alike come from different tables or passages of the source.

System: HIV-1 single-round infectious reporter virus
Assay: Single-round infectious HIV-1 luciferase reporter virus infection of HeLa CD4 cells
Format: cell-based
Conditions: Human immunodeficiency virus 1, HeLa, 72 h
Description: • Virus production—Human embryonic Kidney cell line, 293T, was propagated in Dulbecco's Modified Eagle Medium (Invitrogen, Carlsbad, Calif.) containing 10% fetal Bovine serum (FBS, Sigma, St. Louis, Mo.). • Virus infection—Human epithelial cell line, HeLa, expressing the HIV-1 receptor CD4 was propagated in Dulbecco's Modified Eagle Medium (Invitrogen, Carlsbad, Calif.) containing 10% fetal Bovine serum (FBS, Sigma, St. Louis, Mo.) and supplemented with 0.2 mg/mL GENETICIN® (Invitrogen, Carlsbad, Calif.). • Virus—Single-round infectious reporter virus was produced by co-transfecting human embryonic Kidney 293 cells with an HIV-1 envelope DNA expression vector and a proviral cDNA containing an envelope deletion mutation and the luciferase reporter gene inserted in place of HIV-1 nef sequences (Chen et al., Ref. 41). Transfections were performed using Lipofectamine Plus reagent as described by the manufacturer (Invitrogen, Carlsbad, Calif.). Experimental Procedure:
1. HeLa CD4 cells were plated in 96 well plates at a cell density of 1×10^4 cells per well in 100 μl Dulbecco's Modified Eagle Medium containing 10% fetal Bovine serum and incubated overnight.
2. Compound was added in a 2 μl dimethylsulfoxide solution, so that the final assay concentration would be ≦10 μM.
3. 100 μl of single-round infectious reporter virus in Dulbecco's Modified Eagle Medium was then added to the plated cells and compound at an approximate multiplicity of infection (MOI) of 0.01, resulting in a final volume of 200 μl per well.
4. Virally-infected cells were incubated at 37° C., in a CO2 incubator, and harvested 72 h after infection.
5. Viral infection was monitored by measuring luciferase expression from viral DNA in the infected cells using a luciferase reporter gene assay kit, as described by the manufacturer (Roche Molecular Biochemicals, Indianapolis, Ind.). Infected cell supernatants were removed and 50 μl of lysis buffer was added per well. After 15 minutes, 50 μl of freshly-reconstituted luciferase assay reagent was added per well. Luciferase activity was then quantified by measuring luminescence using a Wallac MICROBETA® scintillation counter.
6. The percent inhibition for each compound was calculated by quantifying the level of luciferase expression in cells infected in the presence of each compound as a percentage of that observed for cells infected in the absence of compound and subtracting such a determined value from 100.
7. An EC50 provides a method for comparing the antiviral potency of the compounds of this disclosure. The effective concentration for fifty percent inhibition (EC50) was calculated with the Microsoft Excel Xlfit curve fitting software. For each compound, curves were generated from percent inhibition calculated at 10 different concentrations by using a four parameter logistic model (model 205). Table 1 is the key for the data in Table 2.

[1] = read-out: EC50 Group from Table 1

Row | Structure (SMILES) | EC50 | EC50 [1]
1 | O=C(C(=O)N1CCn2c(nnc2-c2ccccc2)C1)c1c[nH]c2cccc(F)c12 [Compound A1] | 217 nM | –
2 | COc1cnc(-n2cnc(C)n2)c2[nH]cc(C(=O)C(=O)N3CCn4c(nnc4-c4ccccc4)C3)c12 [Compound B1] | 0.95 nM | –
3 | COc1cnc(-n2ccnn2)c2[nH]cc(C(=O)C(=O)N3CCn4c(nnc4-c4ccccc4)C3)c12 [Compound B2] | – | < 500 nM
4 | O=C(C(=O)N1CCn2c(nnc2-c2ccccc2)C1)c1c[nH]c2c(-n3ccnn3)ncc(F)c12 [Compound B3] | – | < 500 nM
5 | COCc1ncn(-c2ncc(OC)c3c(C(=O)C(=O)N4CCn5c(nnc5-c5ccccc5)C4)c[nH]c23)n1 [Compound B4] | – | < 500 nM
6 | COc1cnc(-n2cnc(C)n2)c2[nH]cc(C(=O)C(=O)N3CCn4c(nnc4-c4ccccc4C)C3)c12 [Compound C1] | 11.8 nM | –
7 | COc1cnc(-n2cnc(C)n2)c2[nH]cc(C(=O)C(=O)N3CCn4c(nnc4-c4ccccc4F)C3)c12 [Compound C2] | 0.29 nM | –
8 | COc1cnc(-n2cnc(C)n2)c2[nH]cc(C(=O)C(=O)N3CCn4c(nnc4-c4ccccn4)C3)c12 [Compound C3] | – | < 500 nM
9 | COc1cnc(-n2cnc(C)n2)c2[nH]cc(C(=O)C(=O)N3CCn4c(nnc4-c4ccccc4C(N)=O)C3)c12 [Compound C4] | > 500 nM | –
10 | COc1ccccc1-c1nnc2n1CCN(C(=O)C(=O)c1c[nH]c3c(-n4cnc(C)n4)ncc(OC)c13)C2 [Compound C5] | – | < 500 nM
11 | COc1cnc(-n2cnc(C)n2)c2[nH]cc(C(=O)C(=O)N3CCn4c(nnc4-c4ccccc4Cl)C3)c12 [Compound C6] | – | < 500 nM
12 | COc1cnc(-n2cnc(C)n2)c2[nH]cc(C(=O)C(=O)N3CCn4c(nnc4-c4ccccc4O)C3)c12 [Compound C7] | 1.91 nM | –
13 | COc1cnc(-n2cnc(C)n2)c2[nH]cc(C(=O)C(=O)N3CCn4c(nnc4-c4cccc(C)c4)C3)c12 [Compound C8] | – | < 500 nM
14 | COc1cnc(-n2cnc(C)n2)c2[nH]cc(C(=O)C(=O)N3CCn4c(-c5ccccc5)cnc4C3)c12 [Compound D1] | – | < 500 nM
15 | COc1cnc(-n2ccnn2)c2[nH]cc(C(=O)C(=O)N3CCn4c(-c5ccccc5)cnc4C3)c12 [Compound D2] | 0.05 nM | –
16 | COc1cnc(-c2cncnc2)c2[nH]cc(C(=O)C(=O)N3CCn4c(-c5ccccc5)cnc4C3)c12 [Compound D3] | – | < 500 nM
17 | COc1cnc(-n2cnc(C)n2)c2[nH]cc(C(=O)C(=O)N3CCn4c(-c5ccccn5)cnc4C3)c12 [Compound E1] | – | < 500 nM
18 | COc1cnc(-n2cnc(C)n2)c2[nH]cc(C(=O)C(=O)N3CCn4c(-c5cccc(O)c5)cnc4C3)c12 [Compound F1] | – | < 500 nM
19 | COc1cnc(-n2cnc(C)n2)c2[nH]cc(C(=O)C(=O)N3CCn4c(-c5cccnc5)cnc4C3)c12 [Compound F2] | – | < 500 nM
20 | COc1cnc(-n2cnc(C)n2)c2[nH]cc(C(=O)C(=O)N3CCn4c(-c5ccc(O)cc5)cnc4C3)c12 [Compound F3] | – | < 500 nM
21 | COc1ccc(-c2cnc3n2CCN(C(=O)C(=O)c2c[nH]c4c(-n5cnc(C)n5)ncc(OC)c24)C3)cn1 [Compound F4] | – | < 500 nM
22 | COc1cnc(-n2cnc(C)n2)c2[nH]cc(C(=O)C(=O)N3CCn4c(-c5ccccc5C#N)cnc4C3)c12 [Compound F5] | 98.9 nM | –
23 | COc1cnc(-n2cnc(C)n2)c2[nH]cc(C(=O)C(=O)N3CCn4c(-c5ccncc5)cnc4C3)c12 [Compound F6] | 13.6 nM | –

Row | Structure (SMILES) | EC50 | EC50 [1]
24 | COc1cnc(-n2cnc(C)n2)c2[nH]cc(C(=O)C(=O)N3CCn4c(nc(Cl)c4-c4ccccc4)C3)c12 [Compound G1] | – | < 500 nM
25 | COc1cnc(-n2cnc(C)n2)c2[nH]cc(C(=O)C(=O)N3CCn4c(nc(Br)c4-c4ccccc4)C3)c12 [Compound G2] | – | < 500 nM
26 | COc1nc2n(c1-c1ccccc1)CCN(C(=O)C(=O)c1c[nH]c3c(-n4cnc(C)n4)ncc(OC)c13)C2 [Compound H1a] | – | < 500 nM
27 | COc1nc2n(c1-c1ccccn1)CCN(C(=O)C(=O)c1c[nH]c3c(-n4cnc(C)n4)ncc(OC)c13)C2 [Compound H1b] | – | < 500 nM
28 | COc1cnc(-n2cnc(C)n2)c2[nH]cc(C(=O)C(=O)N3CCn4c(nc(C)c4-c4ccccn4)C3)c12 [Compound H2] | 1 nM | –
29 | COc1cnc(-n2cnc(C)n2)c2[nH]cc(C(=O)C(=O)N3CCn4c(nc(C(F)(F)F)c4-c4ccccc4)C3)c12 [Compound I1] | – | < 500 nM
30 | O=C(C(=O)N1CCn2c(nc(C(F)(F)F)c2-c2ccccc2)C1)c1c[nH]c2c(-n3ccnn3)ncc(F)c12 [Compound I2] | – | < 500 nM
31 | COc1cnc(-n2cnc(C)n2)c2[nH]cc(C(=O)C(=O)N3CCn4c(nc(C(F)(F)F)c4-c4ccccn4)C3)c12 [Compound I3] | 0.59 nM | –
32 | COc1cnc(-c2cc(CO)[nH]n2)c2[nH]cc(C(=O)C(=O)N3CCn4c(-c5ccccc5)cnc4C3)c12 [Compound J1] | 0.05 nM | –
33 | COc1cnc(-c2cc(C(C)(C)O)[nH]n2)c2[nH]cc(C(=O)C(=O)N3CCn4c(-c5ccccc5)cnc4C3)c12 [Compound J2] | – | < 500 nM
34 | COc1cnc(-n2cnc(C)n2)c2[nH]cc(C(=O)C(=O)N3CCc4c(c(-c5ccccc5)nn4-c4ccccc4)C3)c12 [Compound K1] | 2.6 nM | –
35 | COc1cnc(-n2cnc(C)n2)c2[nH]cc(C(=O)C(=O)N3CCc4c(cnn4-c4ncccn4)C3)c12 [Compound L1] | – | < 500 nM
36 | COc1cnc(-n2cnc(C)n2)c2[nH]cc(C(=O)C(=O)N3CCc4c(cnn4-c4cc(C)nc(C)n4)C3)c12 [Compound L2] | 331 nM | –
37 | COc1cnc(-n2cnc(C)n2)c2[nH]cc(C(=O)C(=O)N3CCc4c(cnn4-c4ccccc4)C3)c12 [Compound L3] | 0.03 nM | –
38 | COc1cnc(-n2cnc(C)n2)c2[nH]cc(C(=O)C(=O)N3CCc4c(cnn4-c4ccccn4)C3)c12 [Compound L4] | – | < 500 nM
39 | COc1cnc(-n2cnc(C)n2)c2[nH]cc(C(=O)C(=O)N3CCc4c(cnn4-c4cnccn4)C3)c12 [Compound L5] | – | < 500 nM
40 | COc1cnc(-n2cnc(C)n2)c2[nH]cc(C(=O)C(=O)N3CCc4c(ncn4-c4ccccc4)C3)c12 [Compound M1] | 0.07 nM | –
41 | COc1cnc(-n2cnc(C)n2)c2[nH]cc(C(=O)C(=O)N3CCc4c(ncn4-c4ccccn4)C3)c12 [Compound M2] | – | < 500 nM
42 | COc1cnc(-n2cnc(C)n2)c2[nH]cc(C(=O)C(=O)N3CCn4c(cnc4-c4ccccc4)C3)c12 [Compound N1] | 0.06 nM | –
43 | COc1cnc(-n2cnc(C)n2)c2[nH]cc(C(=O)C(=O)N3CCn4c(cnc4-c4ccc(F)cc4F)C3)c12 [Compound N2] | – | < 500 nM
44 | O=C(C(=O)N1CCN2C(c3ccccc3)=NCC2C1)c1c[nH]c2c(-n3ccnn3)ncc(F)c12 (stereo not drawn) [Compound O1] | 13 nM | –
45 | COc1cnc(-n2cnc(C)n2)c2[nH]cc(C(=O)C(=O)N3CCN4C(c5ccccn5)=NCC4C3)c12 (stereo not drawn) [Compound O2] | – | < 500 nM
